Starred links: 1 amine or outer side, 2 acyl side, 3 side chain; linkers in the order of their positions; H or OH if unused. Residues, ends and D or L forms follow the SMILES beside them. *: point of attachment. pNA = O=[N+]([O-])c1ccc(N*)cc1; Suc = O=C(CCC(=O)[*:2])[*:1]
How the values were obtained:
[1] = tested on: Human neutrophils; test: Two-stage assay on intact cells: inhibition by phosphoramidon; assay type: cell-based
Procedure: (§1) Neutral endopeptidase and neutral proteinase activities were assayed by the two-stage assay using the synthetic substrate Suc-Ala-Ala-Leu-NH-Np supplemented with Streptomyces griseus aminopeptidase, usually 6-7 μg/ml. Assays were performed in 0.1M NaCl-0.05M Tris.HCl, pH 7.5 at 25° C., unless otherwise stated, with or without 0.01M CaCl2. Assay volume was 1 ml or 2.5 ml when using a Varian Techtron spectrophotometer or 0.2 ml at 23° C. when performed with microplates (Munc Immuno Plate II F) using a Kinetic Microplate Reader (Molecular Devices Corp.). Activity was measured by following the increase in absorbance at 405 nm, due to the release of 4-nitroaniline, E405 =10,600M^-1 cm^-1 [14 ]. Molar concentration of thermolysin was estimated using A280 1% =17.65 [15] and molecular mass of 34,600 Da; molar concentration of bovine kidney neutral endopeptidase by protein determination and molecular mass of 90 kDa, deduced from SDS PAGE. Both endopeptidase 24.11 from bovine kidney and thermolysin cleave the Ala-Leu bond of the compound at a very fast rate (Table 3). […]
(§2) Inhibition was measured at pH 7.5, 25° C., in the presence of 10 mM CaCl2 except for the neutrophils that were assayed at 37° C. and in the absence of added Ca^2+. […]

[2] = molecular target: T1, Endopeptidase 24.11 from bovine kidney (Bos taurus, UniProt E1BPL8); test: Two-stage assay with Suc-Ala-Ala-Leu-NH-Np plus S. griseus aminopeptidase: inhibition by phosphoramidon; assay type: biochemical
T1 construct: Endopeptidase 24.11 from bovine kidney was purified by Triton X-100 extraction; from tissue; host or cells: bovine kidney
T1 sequence (E1BPL8 1-750): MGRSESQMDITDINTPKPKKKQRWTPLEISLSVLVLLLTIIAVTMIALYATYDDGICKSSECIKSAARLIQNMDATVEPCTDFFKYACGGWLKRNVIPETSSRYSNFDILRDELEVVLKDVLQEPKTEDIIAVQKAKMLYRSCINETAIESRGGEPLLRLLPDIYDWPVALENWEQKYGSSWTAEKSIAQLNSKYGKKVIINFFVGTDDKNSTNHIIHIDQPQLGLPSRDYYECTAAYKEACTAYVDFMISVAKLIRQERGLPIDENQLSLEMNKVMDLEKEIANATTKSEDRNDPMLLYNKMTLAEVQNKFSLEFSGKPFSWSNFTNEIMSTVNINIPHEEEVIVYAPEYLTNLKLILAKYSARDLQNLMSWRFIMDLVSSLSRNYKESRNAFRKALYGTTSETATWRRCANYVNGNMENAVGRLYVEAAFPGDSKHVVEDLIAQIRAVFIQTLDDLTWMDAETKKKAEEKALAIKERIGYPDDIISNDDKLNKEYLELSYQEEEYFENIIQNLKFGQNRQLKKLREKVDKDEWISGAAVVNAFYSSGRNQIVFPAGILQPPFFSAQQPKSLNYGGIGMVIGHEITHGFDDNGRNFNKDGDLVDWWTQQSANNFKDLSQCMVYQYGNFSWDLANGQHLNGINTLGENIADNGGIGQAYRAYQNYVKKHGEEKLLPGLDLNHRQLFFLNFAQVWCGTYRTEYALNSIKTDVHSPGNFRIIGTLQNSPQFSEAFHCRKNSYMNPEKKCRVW
Procedure: (§3) Neutral endopeptidase and neutral proteinase activities were assayed by the two-stage assay using the synthetic substrate Suc-Ala-Ala-Leu-NH-Np supplemented with Streptomyces griseus aminopeptidase, usually 6-7 μg/ml. Assays were performed in 0.1M NaCl-0.05M Tris.HCl, pH 7.5 at 25° C., unless otherwise stated, with or without 0.01M CaCl2. Assay volume was 1 ml or 2.5 ml when using a Varian Techtron spectrophotometer or 0.2 ml at 23° C. when performed with microplates (Munc Immuno Plate II F) using a Kinetic Microplate Reader (Molecular Devices Corp.). Activity was measured by following the increase in absorbance at 405 nm, due to the release of 4-nitroaniline, E405 =10,600M^-1 cm^-1 [14 ]. Molar concentration of thermolysin was estimated using A280 1% =17.65 [15] and molecular mass of 34,600 Da; molar concentration of bovine kidney neutral endopeptidase by protein determination and molecular mass of 90 kDa, deduced from SDS PAGE. Both endopeptidase 24.11 from bovine kidney and thermolysin cleave the Ala-Leu bond of the compound at a very fast rate (Table 3). The Leu residue of the substrate interacts with the major hydrophobic specificity sites of the enzymes (S'1), whereas the two Ala residues interact with additional subsites (S1, S2), thereby contributing to catalysis and/or binding. Even the 4-nitroaniline leaving group probably interacts with the enzyme at subsite S'2. Previously reported assays of endopeptidase 24.11 usually utilized a hydrophobic Phe residue, but Leu seems preferable in reaching higher kcat values. The rapid hydrolysis of the Leu residue is also preferable for the present two-stage assay utilizing Steptomyces aminopeptidase, since this enzyme very rapidly hydrolyzes the product of the endopeptidase attack, Leu-NH-Np. The rapid hydrolysis coupled with Km values in the 1 mM range and overall kcat /Km values in the 10^6 M^-1 s^-1 range (Table 3), render the substrate most suitable for detailed kinetic investigations of the enzymes and for detection of the 24.11 and 24.4 classes of enzymes in mammalian tissues and in bacterial extracellular fluids, respectively.
(§4) Like other previously reported substrates for endopeptidase 24.11, the substrate employed may, in principle, be hydrolyzed by chymotrypsin-like enzymes. To assess the contribution of the neutral endopeptidases and neutral proteinases 1 the observed color development, the specific inhibitor of these classes of enzymes phosphoramidon was added (Table 4).
(§5) Inhibition was measured at pH 7.5, 25° C., in the presence of 10 mM CaCl2 except for the neutrophils that were assayed at 37° C. and in the absence of added Ca^2+. The substrate Suc-Ala-Ala-Leu-NH-Npat 0.4 mM was used. […]

[3] = molecular target: T2, Thermolysin (Bacillus thermoproteolyticus, UniProt P00800); test: as above; assay type: biochemical
T2 sequence (P00800 233-548): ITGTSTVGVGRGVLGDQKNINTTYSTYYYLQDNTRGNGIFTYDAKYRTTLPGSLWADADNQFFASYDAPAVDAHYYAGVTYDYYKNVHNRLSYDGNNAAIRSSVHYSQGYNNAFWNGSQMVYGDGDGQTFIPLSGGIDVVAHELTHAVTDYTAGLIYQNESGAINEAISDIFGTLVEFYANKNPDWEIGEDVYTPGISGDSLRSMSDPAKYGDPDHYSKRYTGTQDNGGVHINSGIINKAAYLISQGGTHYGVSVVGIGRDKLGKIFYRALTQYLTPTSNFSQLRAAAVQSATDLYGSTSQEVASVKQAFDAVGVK
Procedure: as §3, §4, §5

[4] = molecular target: T3, B. cereus culture (Bacillus cereus, UniProt P05806); test: Two-stage assay on bacterial culture filtrate: inhibition by phosphoramidon; assay type: biochemical
T3 construct: B. cereus culture filtrate, 5 μl/ml substrate; endogenous in cells; host or cells: Bacillus cereus X-3 DSM 3101 culture filtrate
T3 sequence (P05806 250-566): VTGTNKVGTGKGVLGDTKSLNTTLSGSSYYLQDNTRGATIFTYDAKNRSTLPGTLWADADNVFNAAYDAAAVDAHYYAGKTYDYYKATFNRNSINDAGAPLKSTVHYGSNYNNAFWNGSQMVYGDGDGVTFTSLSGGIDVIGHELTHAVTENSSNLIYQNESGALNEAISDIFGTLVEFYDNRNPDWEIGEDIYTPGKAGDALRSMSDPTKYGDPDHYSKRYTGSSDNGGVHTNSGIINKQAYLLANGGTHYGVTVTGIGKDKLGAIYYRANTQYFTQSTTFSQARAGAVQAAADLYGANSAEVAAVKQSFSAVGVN
Procedure: Bacillus cereus (X-3 DSM 3101, German Collection of Microorganisms, Braunschweig, FRG) containing the neural proteinase were obtained by overnight cultivation in a rich medium supplemented with calcium chloride.
as §1, with “PAGE.” for “PAGE. Both endopeptidase 24.11 from bovine kidney and thermolysin cleave the Ala-Leu bond of the compound at a very fast rate (Table 3).”
as §2

[5] = tested on: Human neutrophils; test: Hydrolysis of the substrate by human neutrophils; assay type: cell-based; settings: substrate 0.4 mM, pH 7.5; neutrophils from a healthy donor, 5×10^5 cells/ml
Procedure: as §1, with “3). The Leu residue of the substrate interacts with the major hydrophobic specificity sites of the enzymes (S'1), whereas the two Ala residues interact with additional subsites (S1, S2), thereby contributing to catalysis and/or binding. Even the 4-nitroaniline leaving group probably interacts with the enzyme at subsite S'2.” for “3).”

SMILES | inhibition at 3.6 µM ([1]; Homo sapiens, Neutrophil, phosphoramidon 3.6 μM, pH 7.5, 37° C., no added Ca2+, substrate 0.4 mM, 5×10^5 cells/ml) [%] | effect of inhibitor on enzymatic reaction ([1]; intact neutrophils) | inhibition at 3.6 µM ([2]; phosphoramidon 3.6 μM, pH 7.5, 25° C., 10 mM CaCl2, substrate 0.4 mM, enzyme 2.2×10^-9 M) [%] | effect of inhibitor on activity ([2]; purified enzyme) | inhibition at 18 µM ([3]; phosphoramidon 18.0 μM, pH 7.5, 25° C., 10 mM CaCl2, substrate 0.4 mM, enzyme 1.5×10^-9 M) [%] | effect of inhibitor on activity ([3]; purified enzyme) | effect of inhibitor on enzymatic reaction ([4]; bacterial culture) | inhibition at 18 µM ([4]; phosphoramidon 18.0 μM, pH 7.5, 25° C., 10 mM CaCl2, substrate 0.4 mM, culture filtrate 5 μl/ml substrate) [%] | rate of substrate hydrolysis [5]
CC(C)C[C@H](NP(=O)(O)O[C@@H]1O[C@@H](C)[C@H](O)[C@@H](O)[C@H]1O)C(=O)N[C@@H](Cc1c[nH]c2ccccc12)C(=O)O [phosphoramidon] | > 95 | strongly inhibits | > 99 | completely abolishes the activity | > 99 | completely abolishes the activity | strongly inhibits | ~95 | –
CC(C)C[C@H](NC(=O)[C@H](C)NC(=O)[C@H](C)NC(=O)CCC(=O)O)C(=O)Nc1ccc([N+](=O)[O-])cc1 [Suc-Ala-Ala-Leu-NH-Np] (Suc-Ala-Ala-Leu-pNA) | – | – | – | – | – | – | – | – | ~ 1.3 nmoles/min/10^6 cells
